A word on the IC50: it is the point on the concentration scale where inhibition reaches its midpoint. Read a high IC50 as a need for much substance. In general, solubility refers to the dissolved amount per volume that the medium holds. Read a high solubility as a readily soluble substance.

For data set [1], the system named is HFF (normal human foreskin fibroblast). Nature of the data set: Methylene Blue Growth Inhibition assay, HFF. It is filed as cell-based. To be noted: 72 h, HFF normal cells, 3 days. Here is the method: (§1) Cellular Assays: Methylene Blue Growth Inhibition assay
(§2) Tumor cell lines used in this assay were BT474 (human breast carcinoma) and LNCaP (lymph node metastasis of prostate cancer). HFF (normal human foreskin fibroblast) was also included. All cell lines were cultured in RPMI 1640 media (Invitrogen Corporation 22400-071) containing 10% Fetal Bovine Serum (FBS) at 37° C. in a humidified 5% CO2 incubator. Cells were harvested using trypsin/EDTA, counted using a hemacytometer and plated in 96-well tissue culture plates (Costar 35-3075), 100 uL per well, at the following densities: BT474 15,000 cells/well, LNCaP 5,000 cells/well and HFF 5,000 cells/well. 10 mM stocks of compounds in DMSO were serially diluted in DMSO through nine 3-fold dilutions in 96-well plates (Costar Corning 3363), and stored at −80 C. The next day, compound dilutions were thawed and 4 uL of each transferred to 662 uL RPMI 1640+100 ug/mL gentamicin, resulting in twice the final required test concentrations. 100 uL of compounds diluted in RPMI 1640 were added to all cell lines. The final concentration of DMSO in all wells, including controls, was 0.3%. Cells were incubated at 37 C, 5% CO2 for 3 days. Medium was removed by aspiration. Cell biomass was estimated by staining cells with 80 uL methylene blue (Sigma M9140, 0.5% in 50:50 ethanol:water), and incubating at room temperature for 1 hour. Stain was aspirated and the plates rinsed by immersion in water, then air-dried. Stain was released from cells by adding 100 uL of solubilizing solution (1% N-lauroyl sarcosine, sodium salt, Sigma L5125, in PBS) and incubating at room temperature for at least 30 minutes. Plates were shaken and the optical density at 620 nm was measured on a microplate reader. Percent inhibition of cell growth was calculated relative to vehicle-treated control wells. Concentration of compound that inhibits 50% of cell growth (IC50) was interpolated using non-linear regression (Levenberg-Marquadt) and the equation, y=Vmax*(1−(x̂n/K̂n+x̂n)))+Y2. [Ref: Mager, M. E. (1972) Data Analysis in Biochemistry and Biophysics. New York: Academic Press]

Data set [2] deals with LNCaP (lymph node metastasis of prostate cancer). Kind of data set: Methylene Blue Growth Inhibition assay, LNCaP. In kind it is cell-based. Particulars: Homo sapiens, 72 h, 3 days. The method, then:
as §1, §2

Data set [3] deals with BT474 (human breast carcinoma). Kind of data set: Methylene Blue Growth Inhibition assay, BT474. In kind it is cell-based. To be noted: BT-474, 72 h, BT474, 3 days. Here is the method:
as §1, §2

A short description of data set [4]: Solubility in 50 mM phosphate buffer at pH 7.4. In kind it is physicochemical. Particulars: for solubility: 50 mM phosphate buffer, pH 7.4, aqueous buffer; for Solubility (statement in words): suitability for IV dosage forms, solubility in water.
Data set [5] has as its target FL AKT1 (Homo sapiens, UniProt P31749). Kind of data set: Full-length AKT enzyme assay (substrate phosphorylation, SPA). To be noted: 4 uM ATP. It is filed as biochemical.
The target of data set [6] is T1, FL AKT2 (Homo sapiens, UniProt P31751).
T1 construct: 0.008 uM, FL AKT2 in the above full-length AKT enzyme assay
T1 sequence (P31751 whole entry): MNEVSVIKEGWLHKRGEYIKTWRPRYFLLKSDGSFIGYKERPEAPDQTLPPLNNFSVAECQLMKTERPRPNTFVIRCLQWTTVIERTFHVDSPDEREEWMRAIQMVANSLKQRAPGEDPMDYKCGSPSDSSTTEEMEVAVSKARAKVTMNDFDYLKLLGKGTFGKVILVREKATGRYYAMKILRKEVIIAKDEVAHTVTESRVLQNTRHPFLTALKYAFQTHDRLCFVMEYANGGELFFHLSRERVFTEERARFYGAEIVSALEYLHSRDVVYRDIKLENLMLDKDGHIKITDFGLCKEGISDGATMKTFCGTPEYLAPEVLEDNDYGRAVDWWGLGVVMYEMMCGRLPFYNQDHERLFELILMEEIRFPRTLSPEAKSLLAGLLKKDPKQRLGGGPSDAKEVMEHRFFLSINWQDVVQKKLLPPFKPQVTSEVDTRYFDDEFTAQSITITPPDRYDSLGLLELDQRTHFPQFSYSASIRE
The data set is described as above. It is filed as biochemical. To be noted: 4 uM ATP.

Each structure is given as a SMILES string. Values after ≈ are worked out from the molar mass of the structure shown. Where a name gives a salt, the structure may show the parent alone.

Sequence of FL AKT1 (P31749 whole entry): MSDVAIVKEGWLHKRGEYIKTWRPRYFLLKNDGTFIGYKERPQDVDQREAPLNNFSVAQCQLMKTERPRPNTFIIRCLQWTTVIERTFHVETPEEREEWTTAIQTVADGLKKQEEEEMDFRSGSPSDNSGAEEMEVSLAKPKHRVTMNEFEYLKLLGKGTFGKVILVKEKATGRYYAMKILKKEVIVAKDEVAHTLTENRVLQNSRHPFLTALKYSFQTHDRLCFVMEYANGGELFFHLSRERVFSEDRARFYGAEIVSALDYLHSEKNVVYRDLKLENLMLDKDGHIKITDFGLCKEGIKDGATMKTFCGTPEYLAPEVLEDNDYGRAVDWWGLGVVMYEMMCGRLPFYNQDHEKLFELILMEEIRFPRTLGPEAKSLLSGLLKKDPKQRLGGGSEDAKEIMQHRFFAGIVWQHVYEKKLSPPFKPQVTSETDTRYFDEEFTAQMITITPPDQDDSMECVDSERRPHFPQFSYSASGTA

Regarding `CCn1c(-c2nonc2N)nc2c(-c3ccccc3)ncc(OCCCN3CCOCC3)c21` [Compound R, 4-(1-ethyl-7-{[3-(4-morpholinyl)propyl]oxy}-4-phenyl-1H-imidazo[4,5-c]pyridin-2-yl)-1,2,5-oxadiazol-3-amine trifluoroacetate], the IC50 was 19900 nM in data set [1], 1420 nM in data set [2] and 17700 nM in data set [3].
Take `CCn1c(-c2nonc2N)nc2c(-c3ccccc3)ncc(OCC(O)CN3CCOCC3)c21` (stereo not shown) [Compound S, 1-{[2-(4-amino-1,2,5-oxadiazol-3-yl)-1-ethyl-4-phenyl-1H-imidazo[4,5-c]pyridin-7-yl]oxy}-3-(4-morpholinyl)-2-propanol trifluoroacetate]: the results for the IC50 in data set [1], in data set [2] and in data set [3] were > 30000 nM, 7770 nM and > 30000 nM, respectively.
As to `CCn1c(-c2nonc2N)nc2c(-c3ccccc3)ncc(OCCN3CCOCC3)c21` [Compound T, 4-(1-ethyl-7-{[2-(4-morpholinyl)ethyl]oxy}-4-phenyl-1H-imidazo[4,5-c]pyridin-2-yl)-1,2,5-oxadiazol-3-amine trifluoroacetate], the IC50 was 18900 nM in data set [1], > 30000 nM in data set [2] and > 30000 nM in data set [3].
On to `CCn1c(-c2nonc2N)nc2cncc(OC3CCNCC3)c21.O=C(O)C(F)(F)F` [Compound U, 4-[1-ethyl-7-(piperidin-4-yloxy)-1H-imidazo[4,5-c]pyridine-2-yl]-furazan-3-ylamine trifluoroacetate], for which the figures for the half-inhibitory concentration (IC50) in data set [1] and in data set [3] were 6470 nM and 4510 nM, respectively. This molecule came in with a solubility in data set [4] of 200 µM.
For `CCn1c(-c2nonc2N)nc2c(-c3ccccc3)ncc(OCC3CCCNC3)c21.O=C(O)C(F)(F)F` (stereo not shown) [Compound V, 4-{1-ethyl-4-phenyl-7-[(3-piperidinylmethyl)oxy]-1H-imidazo-[4,5-c]pyridin-2-yl}-1,2,5-oxadiazol-3-amine trifluoroacetate], the IC50 is 570 nM in data set [1], 1640 nM in data set [2] and 1870 nM in data set [3]. The solubility in data set [4] is 9 µM.
For the molecule `CCn1c(-c2nonc2N)nc2c(C#CC(C)(C)O)ncc(OCCCCN)c21.O=C(O)C(F)(F)F` [Compound W, 4-[7-[(4-aminobutyl)oxy]-2-(4-amino-1,2,5-oxadiazol-3-yl)-1-ethyl-1H-imidazo[4,5-c]pyridin-4-yl}-2-methyl-3-butyn-2-ol trifluoroacetate], the IC50 in data set [1] is 22100 nM; in data set [2], 836 nM; in data set [3], 8210 nM. Besides, the solubility in data set [4] worked out at 210 µM.
With `CCn1c(-c2nonc2N)nc2c(C#CC(C)(C)O)ncc(OCCCN)c21.O=C(O)C(F)(F)F` [Compound X, 4-{2-(4-amino-1,2,5-oxadiazol-3-yl)-7-[(3-aminopropyl)oxy]-1-ethyl-1H-imidazo[4,5-c]pyridin-4-yl}-2-methyl-3-butyn-2-ol trifluoroacetate], the IC50 in data set [1] worked out at 18100 nM; in data set [2], 258 nM; in data set [3], 241 nM. In addition, in data set [4], the solubility turned out to be 173 µM.
With `CCn1c(-c2nonc2N)nc2c(C#CC(C)(C)O)ncc(OCC3CCNCC3)c21.O=C(O)C(F)(F)F` [Compound Y, 4-{2-(4-amino-1,2,5-oxadiazol-3-yl)-1-ethyl-7-[(4-piperidinylmethyl)oxy]-1H-imidazo[4,5-c]pyridin-4-yl}-2-methyl-3-butyn-2-ol trifluoroacetate], the values for the half-maximal inhibitory concentration (IC50) in data set [1], in data set [2] and in data set [3] were > 30000 nM, 217 nM and 2590 nM, respectively. The solubility in data set [4] was 159 µM.
The matching figures for `CCn1c(-c2nonc2N)nc2c(C#CC(C)(C)O)ncc(OCCCNCCc3ccc(OC)cc3)c21` [Compound Z, 4-(2-(4-amino-1,2,5-oxadiazol-3-yl)-1-ethyl-7-{[3-({2-[4-(methyloxy)phenyl]ethyl}amino)propyl]oxy}-1H-imidazo[4,5-c]pyridin-4-yl)-2-methyl-3-butyn-2-ol]: 5510 nM, 48 nM, 266 nM and 37 µM (≈ 19.2 µg/mL).
Consider `CCn1c(-c2nonc2N)nc2c(C#CC(C)(C)O)ncc(OCC[C@@H]3CCCN3)c21` [Example 1, 4-[2-(4-amino-1,2,5-oxadiazol-3-yl)-1-ethyl-7-({2-[(2S)-2-pyrrolidinyl]ethyl}oxy)-1H-imidazo[4,5-c]pyridin-4-yl]-2-methyl-3-butyn-2-ol], for which the 50% inhibitory concentration (IC50) in data set [1] came out at 12600 nM; in data set [5], 2 nM; in data set [2], 52 nM; in data set [3], 176 nM; in data set [6] it was 8 nM. In data set [4], the solubility was 222 µM (≈ 94.5 µg/mL). Also, the “Solubility (statement in words)” value in data set [4] is “suitable for formulation into dosage forms for IV administration”.
As for `CCn1c(-c2nonc2N)nc2c(C#CC(C)(C)O)ncc(OCC[C@@H]3CCCCN3)c21` [Example 2, 4-[2-(4-amino-1,2,5-oxadiazol-3-yl)-1-ethyl-7-({2-[(2S)-2-Piperidinyl]ethyl}oxy)-1H-imidazo[4,5-c]pyridin-4-yl]-2-methyl-3-butyn-2-ol], the half-inhibitory concentration (IC50) in data set [1] was 14200 nM; in data set [2] it was 65 nM; in data set [3] it was 255 nM. The same molecule showed a solubility in data set [4] of 200 µM (≈ 87.9 µg/mL). The “Solubility (statement in words)” value in data set [4] is “suitable for formulation into dosage forms for IV administration”.
The corresponding values for `CCn1c(-c2nonc2N)nc2c(C#CC(C)(C)O)ncc(OCCC3CSCCN3)c21` (stereo not shown) [Example 3, 4-(2-(4-amino-1,2,5-oxadiazol-3-yl)-1-ethyl-7-{[2-(3-thiomorpholinyl)ethyl]oxy}-1H-imidazo[4,5-c]pyridin-4-yl)-2-methyl-3-butyn-2-ol] are 3590 nM, 7 nM, 26 nM, 7 µM (≈ 3.2 µg/mL) and “suitable for formulation into dosage forms for IV administration”.
